Measurements from US20260248767A1, “METHODS FOR INDUCING FERROPTOSIS IN CANCER” (Board of Regents, The University of Texas System, priority 2023, published 2026).

What was measured:
cells = assay: Metabolomic analysis of vehicle or sulfite treated cells; format: cell-based
Procedure: Metabolomic analysis was performed in vehicle or sulfite treated cells. An increase in the levels of 6-phospho-D-Gluconate (FIG. 3C), ribose phosphate (FIG. 3D), D-Glyceraldehyde 3-phosphate (FIG. 3E), D-sedoheptulose-1/7 phosphate (FIG. 3F), NDAP+/NADPH ratio (FIG. 3G), oxPPP shunting (FIG. 3H) were observed.
Metabolomic analysis was performed as previously described (Liu, X. et al. Nat Cell Biol 22, 476-486, doi: 10.1038/s41556-020-0496-x (2020)). Cells were seeded on 35-mm culture plates at a density sufficient to ensure approximately 70-80% confluence at the time of extraction. Metabolites were extracted at the indicated time points for subsequent analyses. Metabolites were extracted by rapidly aspirating the culture medium and then adding 500 μl of an 80% methanol: 20% water mixture at dry ice temperature. The plates were incubated on dry ice for 15 min before the cells were scraped into pre-chilled Eppendorf tubes. The cell debris was pelleted by centrifugation at 13,000 ref for 5 min at 4° C. and the supernatant was transferred into a fresh tube and stored on dry ice until analysis. Just before analysis, 500 μl of extract was dried under nitrogen gas flow and then resuspended in 100 μl water.
The complete platform consists of an Accela 1250 HPLC system, Accela Open Autosampler, MayLab Mistraswitch column oven and Exactive orbitrap mass spectrometer, controlled by the Xcalibur 3.0.63 software package. Chromatography was performed with a Phenomenex Synergi Hydro-RP column (100×2 mm, 2.5 μm particle size). Solvent A is 10 mM tributylamine and 15 mm acetic acid in water; Solvent B is methanol. The gradient is: 0 min, 0% B; 2.5 min, 0% B; 5 min, 20% B; 7.5 min, 20% B; 13 min, 55% B; 15.5 min, 95% B; 18.5 min, 95% B; 19 min, 0% B; 25 min, 0% B. The injection volume was 10 μl. The column temperature was set to 40° C., and the flow rate was 200 μl/min. The Exactive was operated in negative ionization mode with an electrospray ionization interface. The instrument parameters are as follows: sheath gas flow rate 30 (arbitrary units), aux gas flow rate 10 (arbitrary units), sweep gas flow rate 3 (arbitrary units), spray voltage 3 kV, capillary temperature 325° C., capillary voltage −25 V, tube lens voltage −50 V. The scan range was set to 80-1,000 m/z, with a maximum inject time of 250 ms, resolution of 100,000 at 1 Hz, and AGC (automatic gain control) target 1×10^6. The data were analyzed using the MAVEN software suite with signal intensity determined as the Peak Area (Top). For metabolic labelling experiments, the data were corrected to account for the natural abundance of nitrogen-15 using IsoCorrectoR (Heinrich, P. et al. Sci Rep 8, 17910, doi: 10.1038/s41598-018-36293-4 (2018)).

HT-1080 cells = assay: Cell death assay (PI flow cytometry), HT-1080 cells incl. knockout lines
Procedure: Initially, the effect of sulfite on ferroptosis was studied. […] Each group was treated with vehicle alone or with sulfite.
The knockout cells were identified by immunoblotting.
Briefly, cells were seeded in 12-well plates and incubated overnight. After treatment, cells were trypsinized and collected. After washing with cold phosphate-buffered saline (PBS), the cells were stained with 2 μg/mL propidium iodide (PI) in cold PBS. […] All experiments were performed in triplicates.

[1] = sulfite vs vehicle treated cells

Compound: O=S([O-])[O-].[Na+].[Na+] [sulfite, sodium sulfite]
- Levels of S-sulfocysteine (cells; sulfite treated samples): increase
- level of 6-phospho-D-Gluconate (cells; [1]): increase
- level of D-Glyceraldehyde 3-phosphate (cells; [1]): increase
- level of D-sedoheptulose-1/7 phosphate (cells; [1]): increase
- level of ribose phosphate (cells; [1]): increase
- cell death as observed visually (HT-1080 cells; 0.5 mM, cancer cells, presence or absence of RSL3): resulted in cell death
- sensitization of knock out cells to ferroptosis (HT-1080 cells; GPX4, FSP1, COQ2 and DHODH knock out cell lines): can still sensitize
- cell death in combination with RSL3 in SHMT2 knock out cells (HT-1080 cells; RSL3+Sulfite vs RSL3 alone, SHMT2 knock out cells (FIG. 5J)): slight increase in cell death
- cell death in combination with RSL3 in SUOX knockout cells (HT-1080 cells; SUOX knockout HT-1080 cells, vs RSL3 alone): significantly more cell death
- sensitization to RSL3 induced ferroptosis under co-treatment with ferroptosis regulator inhibitors (HT-1080 cells; co-treatment with 4CBA, iFSP1 or brequinar (BQR)): can still sensitize
- cell death in combination with RSL3 (HT-1080 cells; combined with RSL3, compared to RSL3 alone): significant increased cell death
- cell death in combination with FIN56 (HT-1080 cells; combined with ferroptosis inducer FIN56): similarly enhanced
- cell death in combination with JKE-1674 (HT-1080 cells; combined with ferroptosis inducer JKE-1674 (JKE)): similarly enhanced
- cell death in combination with ML-162 (HT-1080 cells; combined with ferroptosis inducer ML-162): similarly enhanced
- cell death in combination with ML-210 (HT-1080 cells; combined with ferroptosis inducer ML-210): similarly enhanced
